The nature of this data set: Δ-9-tetrahydrocannabinol content in milk of a dairy cow fed hemp blossoms. It counts as in vivo. To be noted: dairy cow fed 14 kg/day feed in two rations, 50 g ensiled hemp blossoms per ration; milk samples one week after initiation of feeding plan. From the text: A dairy cow with a medium milk production was fed over a time period of two weeks with a daily feed amount of 14 kg/day, divided up into two rations, 50 g of hemp blossoms having been added to each ration. The hemp blossoms used consisted of the upper part of pistillate hemp plants which were harvested in a way analogous to that employed for harvesting corn. The material was processed by a corn chaff cutter and underwent an ensilage step. The rest of the fodder was normal cattle feed (Total Mix Ratio, TMR) as is commonly provided in agriculture to cows for milk production. The content of Δ-9-tetrahydrocannabinol active substance in milk samples obtained one week after initiation of the feeding plan was determined to be 0.15 mg/l and 0.63 mg/l. The measurements were carried out in an accredited laboratory (Swiss testing STS 017, EN 45001, GMP).

Structures are written as SMILES. Values joined by “and” are separate entries in the source; they are usually repeats but may differ in a detail not shown here. Identical values can stand only once.

For the molecule `CCCCCc1cc(O)c2c(c1)OC(C)(C)[C@@H]1CCC(C)=C[C@@H]21` [Δ-9-tetrahydrocannabinol], the “content of Δ-9-tetrahydrocannabinol active substance in milk samples” value is 0.15 mg/L and 0.63 mg/L.

Values taken from patent US20030194450A1, “Method of producing a preparation containing active substances from cannabis” (priority 2002, published 2003).
